Reference: ChEMBL document CHEMBL5244260, “Aldose reductase and protein tyrosine phosphatase 1B inhibitors as a promising therapeutic approach for diabetes mellitus” (Eur J Med Chem, 2020)

How the values were obtained:
[1] = molecular target: T1, Aldo-keto reductase family 1 member B1 (Rattus norvegicus, UniProt P07943); assay: Inhibition of recombinant Aldose reductase in rat lens using D,L-glyceraldehyde as substrate in presence of NADPH measured after 4 mins by spectrophotometric assay; assay type: tissue-based
[2] = molecular target: T2, Tyrosine-protein phosphatase non-receptor type 1 (Homo sapiens, UniProt P18031); assay: Inhibition of PTP1B (unknown origin) assessed as inhibition constant using pNPP as substrate
T2 sequence (P18031 whole entry): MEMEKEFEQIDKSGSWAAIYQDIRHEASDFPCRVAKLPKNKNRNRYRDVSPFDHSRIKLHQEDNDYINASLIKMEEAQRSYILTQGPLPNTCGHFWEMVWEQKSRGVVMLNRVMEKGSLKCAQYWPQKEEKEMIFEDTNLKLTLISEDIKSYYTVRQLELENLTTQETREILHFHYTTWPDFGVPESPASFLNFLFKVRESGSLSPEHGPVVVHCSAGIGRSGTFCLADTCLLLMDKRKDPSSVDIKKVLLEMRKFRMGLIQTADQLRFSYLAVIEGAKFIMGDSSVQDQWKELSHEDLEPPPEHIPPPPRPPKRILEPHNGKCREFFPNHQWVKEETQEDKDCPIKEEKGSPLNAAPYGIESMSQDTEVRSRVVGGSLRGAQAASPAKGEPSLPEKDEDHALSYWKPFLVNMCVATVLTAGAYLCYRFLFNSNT

[3] = molecular target: T3, Aldo-keto reductase family 1 member B1 (Homo sapiens, UniProt P15121); assay: Inhibition of Aldose reductase in human muscle tissue using D,L-glyceraldehyde as substrate in presence of NADPH by spectrophotometric assay; assay type: tissue-based
[4] = molecular target: T2, Tyrosine-protein phosphatase non-receptor type 1; assay: Inhibition of human recombinant PTP1B (1 to 321 residues) expressed in Escherichia coli BL21 (DE3) assessed as inhibition constant using pNPP as substrate by Michaelis-Menten analysis
[5] = molecular target: Dual specificity protein phosphatase 3 (Homo sapiens, UniProt P51452); assay: Inhibition of human recombinant VHR expressed in Escherichia coli BL21 (DE3) assessed as inhibition constant using pNPP as substrate by stopped-flow spectrophotometer
[6] = molecular target: Receptor-type tyrosine-protein phosphatase alpha (Homo sapiens, UniProt P18433); assay: Inhibition of human PTPalpha assessed as inhibition constant
[7] = molecular target: Receptor-type tyrosine-protein phosphatase F (Rattus norvegicus, UniProt Q64604); assay: Inhibition of rat recombinant LAR expressed in Escherichia coli assessed as inhibition constant using pNPP as substrate incubated for 5 mins by […]
[8] = molecular target: Aldo-keto reductase family 1 member B1 (Sus scrofa, UniProt P80276); assay: Inhibition of ALR2 in pig lens using D,L-glyceraldehyde as substrate preincubated for 4 mins in presence of NADPH followed by substrate addition and measured after 4 mins by spectrophotometric assay; assay type: tissue-based
[9] = molecular target: T3, Aldo-keto reductase family 1 member B1; assay: Inhibition of Aldose reductase (unknown origin)
[10] = organism: Homo sapiens; assay: Selectivity ratio of Ki for PTP1B (unknown origin) to Ki for PTPalpha (unknown origin)
[11] = organism: Homo sapiens; assay: Selectivity ratio of Ki for PTP1B (unknown origin) to Ki for LAR (unknown origin)
[12] = molecular target: T3, Aldo-keto reductase family 1 member B1; assay: Inhibition of human ALR2 expressed in Escherichia coli BL21 (DE3) assessed as inhibition constant using D,L-glyceraldehyde as substrate in presence of NADPH by Michaelis-Menten analysis
[13] = molecular target: T2, Tyrosine-protein phosphatase non-receptor type 1; assay: Inhibition of PTP1B (1 to 321 residues) (unknown origin) expressed in Escherichia coli BL21 assessed as inhibition constant using pNPP as substrate incubated for 2 to 3 min by spectrophotometry analysis
[14] = molecular target: T1, Aldo-keto reductase family 1 member B1; assay: Inhibition of ALR in Fischer-344 rat lens using D,L-glyceraldehyde as substrate in presence of NADPH measured after 3 mins by spectrophotometric assay; assay type: tissue-based
[15] = molecular target: T2, Tyrosine-protein phosphatase non-receptor type 1; assay: Inhibition of human recombinant PTP1B expressed in Escherichia coli BL21 (DE3) using pNPP as substrate by high-throughput screening assay
[16] = organism: Homo sapiens; assay: Selectivity ratio of IC50 for PTP1B (unknown origin) to IC50 for PP1 (unknown origin)
[17] = molecular target: T2, Tyrosine-protein phosphatase non-receptor type 1; assay: Inhibition of PTP1B (unknown origin) using flurogenic substrate by fluorescence plate reader assay
[18] = organism: Homo sapiens; assay: Selectivity ratio of IC50 for PTP1B (unknown origin) to IC50 for Protein phosphatase-lambda (unknown origin)
[19] = organism: Homo sapiens; assay: Selectivity ratio of IC50 for PTP1B (unknown origin) to IC50 for LAR (unknown origin)
[20] = organism: Homo sapiens; assay: Selectivity ratio of IC50 for PTP1B (unknown origin) to IC50 for YOP (unknown origin)
[21] = organism: Homo sapiens; assay: Selectivity ratio of IC50 for PTP1B (unknown origin) to IC50 for TCPTP (unknown origin)
[22] = Inhibition of human recombinant ALR1 expressed in Escherichia coli by Coomassie reagent assay
[23] = Inhibition of ALR2 in Sprague-Dawley rat lens using D,L-glyceraldehyde as substrate preincubated for 10 mins in presence of NADPH followed by substrate addition and measured after 5 mins by spectrophotometric assay; assay type: tissue-based
[24] = Inhibition of ALR2 in Wistar rat lens using D,L-glyceraldehyde as substrate preincubated for 10 mins in presence of NADPH followed by substrate addition and measured after 5 mins by spectrophotometric assay; assay type: tissue-based
[25] = molecular target: T3, Aldo-keto reductase family 1 member B1; assay: Inhibition of human Aldose reductase using glyceraldehyde as substrate preincubated for 5 mins in presence of NADPH followed by substrate addition and measured after 3 mins by UV-visible spectrophotometric assay
[26] = molecular target: T1, Aldo-keto reductase family 1 member B1; assay: Inhibition of Aldose reductase in rat lens using D,L-glyceraldehyde as substrate in presence of NADPH by spectrophotometric assay; assay type: tissue-based

Sequence of Receptor-type tyrosine-protein phosphatase F (Q64604 whole entry): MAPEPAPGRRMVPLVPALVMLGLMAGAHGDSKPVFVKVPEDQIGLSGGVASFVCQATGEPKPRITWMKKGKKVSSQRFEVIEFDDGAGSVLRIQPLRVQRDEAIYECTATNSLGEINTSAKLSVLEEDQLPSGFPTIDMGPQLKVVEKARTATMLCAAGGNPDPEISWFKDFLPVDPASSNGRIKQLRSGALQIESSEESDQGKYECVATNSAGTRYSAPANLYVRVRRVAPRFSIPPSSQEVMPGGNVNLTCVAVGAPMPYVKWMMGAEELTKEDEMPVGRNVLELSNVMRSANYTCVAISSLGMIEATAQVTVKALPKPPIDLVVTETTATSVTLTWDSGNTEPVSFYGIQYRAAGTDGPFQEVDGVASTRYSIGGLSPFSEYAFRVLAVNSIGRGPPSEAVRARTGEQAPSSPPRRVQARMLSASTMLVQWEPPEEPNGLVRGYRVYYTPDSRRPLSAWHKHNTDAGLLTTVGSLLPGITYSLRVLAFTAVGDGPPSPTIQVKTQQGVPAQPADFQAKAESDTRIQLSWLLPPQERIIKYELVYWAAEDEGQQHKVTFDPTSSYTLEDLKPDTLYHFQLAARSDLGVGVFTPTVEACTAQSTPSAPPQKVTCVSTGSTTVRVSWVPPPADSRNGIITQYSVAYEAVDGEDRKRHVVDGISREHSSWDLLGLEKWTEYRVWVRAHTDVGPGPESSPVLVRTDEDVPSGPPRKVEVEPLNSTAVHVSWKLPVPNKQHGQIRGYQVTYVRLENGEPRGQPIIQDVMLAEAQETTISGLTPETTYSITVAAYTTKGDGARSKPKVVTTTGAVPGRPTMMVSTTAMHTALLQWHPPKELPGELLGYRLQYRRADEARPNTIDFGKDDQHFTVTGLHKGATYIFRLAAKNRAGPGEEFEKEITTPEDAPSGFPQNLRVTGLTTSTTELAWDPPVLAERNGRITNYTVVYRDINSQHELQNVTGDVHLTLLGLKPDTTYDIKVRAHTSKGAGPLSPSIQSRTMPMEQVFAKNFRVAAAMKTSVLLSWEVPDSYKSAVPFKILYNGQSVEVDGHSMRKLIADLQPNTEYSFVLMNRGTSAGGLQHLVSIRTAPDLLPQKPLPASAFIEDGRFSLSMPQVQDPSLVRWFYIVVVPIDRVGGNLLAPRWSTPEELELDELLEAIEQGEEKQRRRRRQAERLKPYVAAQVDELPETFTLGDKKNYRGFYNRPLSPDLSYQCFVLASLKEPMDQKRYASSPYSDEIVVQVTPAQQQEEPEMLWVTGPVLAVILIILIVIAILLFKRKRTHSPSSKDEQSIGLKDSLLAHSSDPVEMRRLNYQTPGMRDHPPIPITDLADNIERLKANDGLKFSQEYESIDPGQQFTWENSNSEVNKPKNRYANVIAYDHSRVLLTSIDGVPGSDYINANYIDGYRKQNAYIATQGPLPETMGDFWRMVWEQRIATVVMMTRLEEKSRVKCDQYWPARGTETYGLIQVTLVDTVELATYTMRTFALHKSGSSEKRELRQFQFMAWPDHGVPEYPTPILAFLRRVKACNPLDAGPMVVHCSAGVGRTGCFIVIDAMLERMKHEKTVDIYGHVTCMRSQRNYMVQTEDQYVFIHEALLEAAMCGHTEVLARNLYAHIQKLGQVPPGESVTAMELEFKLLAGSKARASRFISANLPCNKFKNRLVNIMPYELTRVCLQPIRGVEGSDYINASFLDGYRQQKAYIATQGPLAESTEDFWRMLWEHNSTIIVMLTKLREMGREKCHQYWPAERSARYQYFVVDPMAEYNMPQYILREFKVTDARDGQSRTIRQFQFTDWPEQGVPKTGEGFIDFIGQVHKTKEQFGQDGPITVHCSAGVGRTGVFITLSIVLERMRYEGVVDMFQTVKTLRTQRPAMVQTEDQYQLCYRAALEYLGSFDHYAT
Sequence of Receptor-type tyrosine-protein phosphatase alpha (P18433 whole entry): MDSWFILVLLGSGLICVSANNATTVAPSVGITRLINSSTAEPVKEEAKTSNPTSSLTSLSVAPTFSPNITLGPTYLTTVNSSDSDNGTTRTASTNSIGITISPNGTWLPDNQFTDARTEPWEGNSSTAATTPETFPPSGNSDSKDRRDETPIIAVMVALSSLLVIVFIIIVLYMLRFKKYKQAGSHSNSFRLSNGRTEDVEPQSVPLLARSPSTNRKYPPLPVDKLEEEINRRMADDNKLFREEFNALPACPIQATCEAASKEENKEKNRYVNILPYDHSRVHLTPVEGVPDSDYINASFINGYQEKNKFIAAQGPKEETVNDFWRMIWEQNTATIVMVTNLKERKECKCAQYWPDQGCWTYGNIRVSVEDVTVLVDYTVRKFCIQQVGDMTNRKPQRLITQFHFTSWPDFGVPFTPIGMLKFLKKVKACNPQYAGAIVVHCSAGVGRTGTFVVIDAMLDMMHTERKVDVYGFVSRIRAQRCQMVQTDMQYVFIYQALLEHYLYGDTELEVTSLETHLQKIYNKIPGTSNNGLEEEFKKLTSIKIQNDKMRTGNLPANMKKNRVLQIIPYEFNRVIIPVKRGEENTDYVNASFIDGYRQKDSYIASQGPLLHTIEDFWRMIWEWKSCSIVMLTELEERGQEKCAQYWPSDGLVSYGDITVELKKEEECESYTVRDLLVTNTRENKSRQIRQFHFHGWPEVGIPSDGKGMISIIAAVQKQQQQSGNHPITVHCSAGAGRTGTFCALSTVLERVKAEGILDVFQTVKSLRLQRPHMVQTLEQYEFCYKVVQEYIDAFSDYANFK
Sequence of Dual specificity protein phosphatase 3 (P51452 whole entry): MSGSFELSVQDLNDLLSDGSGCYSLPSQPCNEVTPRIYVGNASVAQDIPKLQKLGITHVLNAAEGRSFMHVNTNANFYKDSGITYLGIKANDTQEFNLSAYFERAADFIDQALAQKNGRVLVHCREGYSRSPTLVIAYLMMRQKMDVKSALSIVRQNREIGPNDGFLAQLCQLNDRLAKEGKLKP

COc1ccc2c(c1)C=Cc1cc(OC)ccc1C2/C=C1\SC(=O)NC1=O
IC50 [1]: 3.4 µM

CCCCCNC(=O)[C@H](Cc1ccc(OC(C(=O)O)C(=O)O)cc1)NC(=O)[C@H](Cc1ccccc1)NC(=O)CCC(=O)O
Ki [2]: 1.2 µM

Cc1ccc(F)c(N(C)S(=O)(=O)C[N+](=O)[O-])c1
IC50 [3]: 0.35 µM

O=C(CCc1ccc(C(F)(F)P(=O)(O)O)cc1)Nc1cc(NC(=O)CCc2ccc(C(F)(F)P(=O)(O)O)cc2)cc(C(=O)NCCc2ccc(C(=O)O)cc2)c1
Ki [4]: 0.93 µM | Ki [5]: 3600 µM | Ki [6]: 120 µM | Ki [7]: 100 µM

Cc1cc2c(s1)CCC1CC(=O)N(CCCCCC(=O)O)N=C21 (stereo unspecified)
IC50 [8]: 18 µM

O=[N+]([O-])c1cc(Br)cc2c1NC=NS2(=O)=O
IC50 [9]: 4.6 µM

O=C(O)COc1ccc(-c2cc(NC(=O)C(=O)O)c(C(=O)O)s2)cc1
Ratio Ki [10]: 20 | Ratio Ki [11]: 20

N#Cc1ccc(CNC(=O)c2ccc(Cl)cc2OCC(=O)O)cc1[N+](=O)[O-]
Ki [12]: 0.107 µM

CCCCCCCCCCCCCCC(=O)N[C@@H](Cc1ccc(C(F)(F)P(=O)(O)O)cc1)C(=O)N[C@@H](CC(=O)O)C(=O)N[C@@H](Cc1ccc(C(F)(F)P(=O)(O)O)cc1)C(N)=O
Ki [13]: 0.025 µM

O=C(O)Cn1ccc(-c2nc3ccccc3s2)c1
IC50 [14]: 0.049 µM

Cc1cc(/C=C2/S/C(=N/c3ccc(Cl)cc3)NC2=O)c(C)n1-c1cc(C(=O)O)cc(C(=O)O)c1
IC50 [15]: 1.6 µM

COC(=O)C(O)c1ccc(NC(=O)CCCCn2cc(COc3ccc(-c4cc(C(=O)O)no4)cc3)nn2)cc1 (stereo unspecified)
Ratio IC50 [16]: 10 | IC50 [17]: 4.7 µM | Ratio IC50 [18]: 10 | Ratio IC50 [19]: 10 | Ratio IC50 [20]: 10 | Ratio IC50 [21]: 10

O=C(O)COc1cc(F)ccc1C(=S)NCc1cccc([N+](=O)[O-])c1
IC50 [22]: 35 µM

O=c1c(/C=C/c2ccc(O)cc2)nc2ccc(F)cc2n1-c1cnn(O)c1
IC50 [23]: 0.107 µM

O=C(O)CC1=CN(/C=C/c2ccc(O)c(O)c2)S(=O)(=O)c2ccccc21
IC50 [24]: 0.126 µM

Nc1ccc(CNC(=O)c2ccc(Cl)cc2OCC(=O)O)c(F)c1
IC50 [25]: 1.3 µM

CC(C)NC(=O)NS(=O)(=O)c1ccc(-n2nc(-c3ccc(F)cc3)ccc2=O)cc1
IC50 [26]: 45 µM
